Values quoted from earlier work in patent US20240248099A1, “BIOMARKERS FOR AGE-RELATED MACULAR DEGENERATION” (BELITE BIO, LLC, priority 2021, published 2024).

Target: T1, RBP4 (Homo sapiens, UniProt P02753)
T1 construct: host or cells: serum of AMD patients (endogenous circulating protein)

CC1=C(/C=C/C(C)=C/C=C/C(C)=C/C(=O)Nc2ccc(O)cc2)C(C)(C)CCC1 [fenretinide]
incidence of choroidal neovascularization onset (246 AMD patients with only geographic atrophy, 100 mg or 300 mg fenretinide or placebo, 2 years, especially in the higher dose group): reduction in the incidence of choroidal neovascularization onset
growth rate of geographic atrophy, overall cohort (overall cohort, insufficient number of subjects achieving serum RBP4 less than 1 μM): no statistically significant retardation of the growth rate of geographic atrophy
rate of geographic atrophy progression versus serum RBP4 level (patients who achieved RBP4 levels below 1 μM (approximately 20 μg/ml) after fenretinide treatment): a lower serum RBP4 level was correlated with a slower rate of geographic atrophy progression
